Reference: patent US20220315572A1, “SUBSTITUTED CYANOPYRROLIDINES WITH ACTIVITY AS USP30 INHIBITORS” (MISSION THERAPEUTICS LIMITED, priority 2019, published 2022)

Legend:
USP30 = target: T1, USP30 (Homo sapiens, UniProt Q70CQ3); assay: USP30 biochemical IC50 assay (fluorescence polarisation); conditions: USP30 biochemical IC50 assay, exemplary compounds; read-out: IC50
T1 construct: purchased Boston Biochem E582
T1 sequence (Q70CQ3 57-517 limits assumed): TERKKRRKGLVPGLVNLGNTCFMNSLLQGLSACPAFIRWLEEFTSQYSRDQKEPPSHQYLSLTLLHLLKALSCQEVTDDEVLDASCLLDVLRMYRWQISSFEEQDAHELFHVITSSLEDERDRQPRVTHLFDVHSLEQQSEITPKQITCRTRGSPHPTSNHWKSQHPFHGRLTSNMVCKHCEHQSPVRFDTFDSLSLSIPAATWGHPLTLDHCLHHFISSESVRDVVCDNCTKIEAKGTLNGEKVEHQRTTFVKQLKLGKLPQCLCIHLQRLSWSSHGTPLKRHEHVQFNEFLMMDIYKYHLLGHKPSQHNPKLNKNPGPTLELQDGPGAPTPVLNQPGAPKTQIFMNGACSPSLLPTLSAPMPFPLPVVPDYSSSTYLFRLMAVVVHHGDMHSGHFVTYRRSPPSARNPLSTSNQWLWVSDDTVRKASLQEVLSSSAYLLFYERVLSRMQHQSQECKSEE
Description: Dilution plates were prepared at 21 times the final concentration (2100 μM for a final concentration of 100 μM) in 50% DMSO in a 96-well polypropylene V-bottom plate (Greiner #651201). A typical 8-point dilution series would be 100, 30, 10, 3, 1, 0.3, 0.1, 0.03 μM final. Reactions were performed in duplicate in black 384 well plates (small volume, Greiner 784076) in a final reaction volume of 21 μl. Either […] of 50% DMSO or diluted compound was added to the plate. USP30 (Boston Biochem #E582) was diluted in reaction buffer (40 mM Tris, pH 7.5, 0.005% Tween 20, 0.5 mg/ml BSA, 5 mM beta-mercaptoethanol) to achieve a final assay concentration of 4 nM, and 10 μl of diluted USP30 was added to the compound. Enzyme and compound were incubated for 30 min at room temp. Reactions were initiated by the addition of 50 nM of TAMRA labelled peptide linked to ubiquitin via an iso-peptide bond as fluorescence polarisation substrate. Reactions were read immediately after addition of substrate and following a 2-hour incubation at room temperature. Readings were performed on a Pherastar Plus (BMG Labtech). λ Excitation 540 nm; λ Emission 590 nm.

UCHL1 = target: T2, UCHL1 (Homo sapiens, UniProt P09936); assay: DUB biochemical IC50 assay, UCHL1
T2 sequence (P09936 1-223): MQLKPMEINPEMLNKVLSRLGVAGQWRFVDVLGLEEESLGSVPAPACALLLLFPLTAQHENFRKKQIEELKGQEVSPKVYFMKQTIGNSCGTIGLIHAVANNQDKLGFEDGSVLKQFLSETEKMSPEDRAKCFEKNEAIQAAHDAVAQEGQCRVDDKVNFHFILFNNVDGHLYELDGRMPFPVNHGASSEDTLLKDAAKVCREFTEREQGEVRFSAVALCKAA

[1] = test system: USP2, USP10, USP16, USP21, USP22, USP25, USP28, USP35, USP46; assay: DUB biochemical IC50 assays, nine DUBs; conditions: range over the nine DUBs
Cathepsin B = Cathepsin B (Homo sapiens, UniProt P07858); assay: Cathepsin IC50, cathepsin B; type: biochemical
Cathepsin K = target: T3, Cathepsin K (Homo sapiens, UniProt P43235); assay: Cathepsin IC50, cathepsin K; type: biochemical
T3 sequence (P43235 115-329): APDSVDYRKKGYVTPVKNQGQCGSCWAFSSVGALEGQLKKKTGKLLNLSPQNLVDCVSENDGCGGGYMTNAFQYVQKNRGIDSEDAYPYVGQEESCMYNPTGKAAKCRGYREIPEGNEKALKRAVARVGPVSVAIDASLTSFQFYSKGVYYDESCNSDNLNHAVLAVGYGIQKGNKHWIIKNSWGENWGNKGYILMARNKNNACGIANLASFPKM

Cathepsin L = Cathepsin L (Homo sapiens, UniProt P07711); assay: Cathepsin IC50, cathepsin L; type: biochemical
Cathepsin L, sequence (P07711 114-333, species assumed): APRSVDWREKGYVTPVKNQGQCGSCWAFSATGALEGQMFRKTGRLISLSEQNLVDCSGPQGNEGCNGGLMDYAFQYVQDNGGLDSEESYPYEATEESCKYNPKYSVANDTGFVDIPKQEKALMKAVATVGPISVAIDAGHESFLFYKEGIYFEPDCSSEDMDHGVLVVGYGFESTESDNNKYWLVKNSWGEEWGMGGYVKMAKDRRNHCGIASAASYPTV

Cathepsin S = Cathepsin S (Homo sapiens, UniProt P25774); assay: Cathepsin IC50, cathepsin S; type: biochemical
Cathepsin S, sequence (P25774 115-331, species assumed): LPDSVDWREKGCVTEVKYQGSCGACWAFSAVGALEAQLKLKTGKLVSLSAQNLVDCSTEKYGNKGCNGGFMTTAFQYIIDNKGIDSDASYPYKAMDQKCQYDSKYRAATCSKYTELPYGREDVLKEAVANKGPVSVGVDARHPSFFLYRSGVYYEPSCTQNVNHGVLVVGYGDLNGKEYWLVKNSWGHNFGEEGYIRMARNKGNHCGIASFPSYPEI

Cathepsin V = Cathepsin V (Homo sapiens, UniProt O60911); assay: Cathepsin IC50, cathepsin V; type: biochemical
Cathepsin V, sequence (O60911 114-334, species assumed): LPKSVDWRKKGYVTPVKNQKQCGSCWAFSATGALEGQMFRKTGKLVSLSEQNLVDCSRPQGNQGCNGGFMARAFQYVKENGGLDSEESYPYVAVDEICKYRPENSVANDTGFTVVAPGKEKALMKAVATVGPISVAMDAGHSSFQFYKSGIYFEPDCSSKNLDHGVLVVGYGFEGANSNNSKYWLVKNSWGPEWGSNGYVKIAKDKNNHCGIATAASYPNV

Cathepsins B, K, L, S, V = assay: Cathepsin IC50, range over B, K, L, S, V; type: biochemical
[2] = test system: HCT116 human colorectal carcinoma cells; assay: In vitro cytotoxicity (Cell Tox), alamarBlue; type: cell-based
From the text: There is also a need for compounds that have a favourable safety profile, which may be measured by a variety of standard in vitro and in vivo methods. A cell toxicity counter-screen may be used to assay the anti-proliferative/cytotoxic effect in a particular cell line (e.g. HCT116) by fluorometric detection of rezasurin (alamarBlue) to resofurin in response to mitochondrial activity.
In Vitro Cytotoxicity (Cell Tox): Measured in HCT116 human colorectal carcinoma cells using alamarBlue as the assay endpoint. Compound cytotoxicity was measured over a period of 96-hour continual compound exposure.

Endogenous USP30 = target: T4, Endogenous USP30 (Homo sapiens, UniProt Q70CQ3); assay: USP30 endogenous cellular target engagement western blot assay (Cell TE WB); type: cell-based; conditions: Hela cells stably overexpressing YFP-Parkin, 1 hour
T4 construct: USP30 endogenous cellular target engagement western blot (WB) assay; endogenous in cells; host or cells: HeLa stably overexpressing YFP-Parkin
T4 sequence (Q70CQ3 1-517): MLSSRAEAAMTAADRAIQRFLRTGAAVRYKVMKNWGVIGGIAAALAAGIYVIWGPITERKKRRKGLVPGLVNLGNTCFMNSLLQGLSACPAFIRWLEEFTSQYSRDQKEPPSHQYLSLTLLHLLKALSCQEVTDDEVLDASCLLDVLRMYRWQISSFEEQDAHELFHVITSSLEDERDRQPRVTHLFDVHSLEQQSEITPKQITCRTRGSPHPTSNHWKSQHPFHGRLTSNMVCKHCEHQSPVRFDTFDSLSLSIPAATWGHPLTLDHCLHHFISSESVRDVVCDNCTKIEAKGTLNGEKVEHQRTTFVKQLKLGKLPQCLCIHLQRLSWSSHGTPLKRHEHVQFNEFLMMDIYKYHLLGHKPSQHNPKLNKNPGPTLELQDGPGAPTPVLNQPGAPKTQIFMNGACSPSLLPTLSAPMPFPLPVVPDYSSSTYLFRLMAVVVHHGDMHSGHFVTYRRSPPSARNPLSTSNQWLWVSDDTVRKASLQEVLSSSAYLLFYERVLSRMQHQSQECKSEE
Description: Hela cells stably overexpressing YFP-Parkin were seeded into 6 well dishes. Once adhered, cells were treated with appropriate concentrations of test compounds or vehicle control for 1 hour at 37° C., 5% CO2. Whole cell lysates were prepared by scraping the cells into cold PBS, centrifuging and lysing in lysis buffer (50 mM Tris-base, pH 7.5, 50 mM NaCl, 1% NP-40/Igepal CA-630, 2 mM MgCl2, 10% Glycerol, 5 mM beta-mercaptoethanol, cOmplete mini tablets EDTA free (Roche), PhosStop tablets (Roche)) for 10 mins. The equivalent of 20 μg of protein from the cleared cell lysate was incubated with a final conc of 2.5 μM HA-Ahx-Ahx-Ub-VME probe at room temperature. The reaction was stopped by addition of 5×SDS sample loading buffer and proteins separated by SDS PAGE and western blotting. USP30 was detected using an anti-USP30 Sheep S746D antibody (MRC PPU Reagents and Services) and a rabbit anti sheep secondary IgG (H+L) horseradish peroxidase conjugated (Thermo #31480) and visualised using ECL reagent (GE #RPN2109) on a GE LAS4000 imager. Target engagement was measured by quantitation of the bands corresponding to USP30 and USP30 bound to the Ub-VME probe and expression of this proportion compared to vehicle treated control.
Cell TE WB: USP30 endogenous cellular target engagement western blot (WB) assay. Assays the activity of compounds against USP30 in cells using an irreversible activity probe to monitor USP30 activity.

COC[C@@H]1C[C@@H](NC(=O)c2nnc(-c3cc(C#N)ccc3OC)o2)CN1C#N [Example 4, 5-(5-Cyano-2-methoxyphenyl)-N-((3R,5S)-1-cyano-5-(methoxymethyl)pyrrolidine-3-yl)-1,3,4-oxadiazole-2-carboxamide]
IC50 (USP30): 0.029 µM
DUB selectivity preference for USP30 v UCHL1 (UCHL1): 10300
IC50 (UCHL1): > 300 µM
DUB selectivity preference for USP30 v 9 DUBs [1]: 365-10300
IC50 ([1]; Ref. Ex. C excl. USP22, Ref. Ex. D excl. USP2, 46): ≥ 10.6 µM
IC50 (Cathepsin B): 111 µM
IC50 (Cathepsin K): 44.5 µM
IC50 (Cathepsin L): 54.5 µM
IC50 (Cathepsin S): 226 µM
IC50 (Cathepsin V): 223 µM
Selectivity preference for USP30 v cathepsins (Cathepsins B, K, L, S, V; range over cathepsins B, K, L, S, V): 1500-7800
IC50 (Cathepsins B, K, L, S, V; range over the five cathepsins): 44.5 to 226 µM
Cell Tox EC50/USP30 IC50 [2]: >1000
EC50 ([2]; Homo sapiens, HCT-116, 96-hour continual compound exposure, alamarBlue): > 30 µM
EC50 (Endogenous USP30): 0.087 µM
